Laboratory results as given in PubChem BioAssay (NCI).
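Five concentrations, 48 hours, 96-well plates. The concentration for 50% growth inhibition is given as GI50. TGI: total growth inhibition.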 Where a SMILES comes first, the peptide text is derived from it. [ ]: non-standard residue; d: D form. The star is where a group is joined. ξ: configuration not given here. NMeF = CN[CH](Cc1ccccc1)C(=O)O; ξNMe2Val = CC(C)C(C(=O)*)N(C)C; NMeV = CN[CH](C(=O)O)C(C)C; ξNMeV = CNC(C(=O)O)C(C)C; Boc = CC(C)(C)OC(=O)*; OBn = c1ccc(CO*)cc1; OtBu = CC(C)(C)O*

Experiments:
Experiment in all cases: NCI-60 cell line screen, 48 h
NCI-H460 lung = tested on: NCI-H460 lung
TK-10 renal = tested on: TK-10 renal
KM20L2 colon = tested on: KM20L2 colon
SK-OV-3 ovarian = tested on: SK-OV-3 ovarian
M14 melanoma = tested on: M14 melanoma
CAKI-1 renal = tested on: CAKI-1 renal
786-0 renal = tested on: 786-0 renal
XF 498 CNS = tested on: XF 498 CNS
A549 NSCLC = tested on: A549 NSCLC
SF-539 CNS = tested on: SF-539 CNS
MDA-MB-231 breast = tested on: MDA-MB-231 breast

Row | SMILES | TGI (NCI-H460 lung) [µM] | TGI (TK-10 renal) [µM] | TGI (KM20L2 colon) [µM] | TGI (SK-OV-3 ovarian) [µM] | TGI (M14 melanoma) [µM] | TGI (CAKI-1 renal) [µM] | TGI (786-0 renal) [µM] | TGI (XF 498 CNS) [µM] | TGI (A549 NSCLC) [µM] | TGI (SF-539 CNS) [µM] | GI50 (M14 melanoma) [µM] | GI50 (MDA-MB-231 breast) [µM] | TGI (MDA-MB-231 breast) [µM] | GI50 (NCI-H460 lung) [µM] | GI50 (TK-10 renal) [µM] | GI50 (KM20L2 colon) [µM] | GI50 (SK-OV-3 ovarian) [µM] | GI50 (CAKI-1 renal) [µM] | GI50 (A549 NSCLC) [µM] | GI50 (SF-539 CNS) [µM]
1 | Cc1ccc(NC(=O)C2C3CCC(O3)C2C(=O)O)cc1 (stereo not drawn) | > 100 | > 100 | > 57.8 | > 100 | > 76.4 | > 100 | > 56.1 | > 77.8 | > 100 | > 100 | – | – | – | – | – | – | – | – | – | –
2 | CC1OC(O[C@@H]2C=C3CC[C@@H]4[C@H](CC[C@]5(C)[C@@H](c6ccc(=O)oc6)CC[C@]45O)[C@@]3(C)CC2)C(O)C(OC2OC(CO)C(O)C(O)C2O)C1O (stereo partly drawn) | 0.00143 | 0.016 | 0.0545 | – | 0.0148 | 0.0015 | 0.0117 | 0.0276 | 0.000142 | 0.000699 | 0.00096 | 0.000388 | 0.0196 | – | – | – | – | – | – | –
3 | CN(C)CCC[N+]1=Nc2cccc3cccc(c23)N1 | > 100 | > 100 | > 100 | > 100 | 39 | > 100 | > 100 | > 100 | > 100 | > 100 | – | – | – | – | – | – | – | – | – | –
4 | CC(=O)OCC1OC(N=[N+]=[N-])C(OC(C)=O)C(OC(C)=O)C1OC1OC(COC(C)=O)C(OC(C)=O)C(OC(C)=O)C1OC(C)=O (stereo not drawn) | > 100 | > 100 | > 100 | > 100 | > 100 | > 100 | > 100 | > 100 | > 100 | > 100 | – | – | – | – | – | – | – | – | – | –
5 | CC#COS(=O)(=O)c1ccc(C)cc1 | > 100 | > 100 | > 100 | > 100 | > 100 | > 100 | > 100 | – | > 100 | > 100 | – | – | – | – | – | – | – | – | – | –
6 | COc1cc(O)c(Cc2ccccc2O)c(O)c1C(=O)CCc1ccccc1 | 12.2 | – | 24.6 | 18.2 | – | 13 | – | 7.76 | 21.8 | 15.7 | – | – | – | – | – | – | – | – | – | –
7 | O=C1C(=C([O-])c2ccccc2)C(=O)c2ccccc21.O=C1C(=C([O-])c2ccccc2)C(=O)c2ccccc21.[Ni+2] | > 100 | > 100 | > 100 | 98.4 | – | > 100 | – | – | > 100 | > 100 | – | – | – | 33.9 | > 100 | > 100 | 23.1 | 33.9 | 52.5 | 59.2
8 | CC(C)C(C(=O)N(C)[C@H](C(=O)N1CCC[C@H]1C(=O)N(C)[C@@H](Cc1ccccc1)C(=O)OCc1ccccc1)C(C)C)N(C)C(=O)[C@@H](NC(=O)OC(C)(C)C)C(C)C (stereo partly drawn) (Boc-V[ξNMeV][NMeV]P[NMeF]-OBn) | > 31.6 | > 31.6 | > 31.6 | > 31.6 | > 100 | > 31.6 | > 71.3 | > 31.6 | > 31.6 | > 31.6 | – | – | – | – | – | – | – | – | – | –
9 | COc1ccc([C@H]2CC3C(=O)N(c4ccc(OC)cc4)C(=O)C3c3[nH]c4ccccc4c32)cc1 (stereo partly drawn) | > 100 | > 100 | > 100 | > 100 | > 100 | > 100 | 47.7 | 95.9 | > 100 | 51.6 | – | – | – | – | – | – | – | – | – | –
10 | N#COc1ccc(Oc2ccc(OC#N)cc2)cc1 | > 100 | > 100 | > 100 | > 100 | > 100 | > 100 | > 100 | > 100 | > 100 | > 100 | – | – | – | – | – | – | – | – | – | –
11 | NC(=O)/N=C/c1c(O)c2ccccc2oc1=O | > 100 | > 100 | > 100 | – | > 100 | – | – | – | – | > 100 | – | – | – | – | – | – | – | – | – | –
12 | CC(C)C(C(=O)N(C)C(Cc1ccccc1)C(=O)N(C)C(C(=O)N(C)C(C(=O)N1CCCC1C(=O)OC(C)(C)C)C(C)C)C(C)C)N(C)C (stereo not drawn) (ξNMe2Val-[NMeF][NMeV][NMeV]P-OtBu; configuration not given here) | > 100 | > 100 | 46.4 | – | 51.2 | – | > 100 | 86.1 | > 100 | > 100 | – | – | – | – | – | – | – | – | – | –
13 | CCCCCCCCCCCC[N+]12CC[N+](C)(CC1)CC2 | 26.5 | 5.6 | 85.9 | > 100 | > 100 | 30.9 | 26.8 | 80 | > 100 | > 100 | – | – | – | – | – | – | – | – | – | –
14 | CSC(C1c2ccccc2N(C)c2[nH]c(=O)n(C)c(=O)c21)S(=O)(=O)c1ccc(C)cc1 (stereo not drawn) | – | > 100 | – | > 100 | – | > 100 | > 100 | > 100 | > 100 | > 100 | – | – | – | – | – | – | – | – | – | –
15 | COc1ccc(-c2oc3cc(O)c(OC)c(O)c3c(=O)c2O)cc1 | 26.4 | > 100 | > 100 | 42.8 | > 100 | 65.3 | 33.1 | > 100 | 18 | 41.6 | – | – | > 100 | – | – | – | – | – | – | –
